# Legend:
# Assay type in all cases: cell-based
# [1] = system: NPC-TW01 nasal-pharyngeal carcinoma cells; experiment: in vitro cytotoxicity assay (MTS), NPC-TW01; conditions: Homo sapiens, NPC-TW01, 72 hours exposure, read-out: IC50 (concentration that inhibits 50% of cell growth)
# Source text: (§1) To examine the effects of the present composition SF-01 on inhibition of cancer/tumor cells, various human cell lines were used, including one normal cell line and eight cancer/tumor cell lines: • 1. RPTEC (Cambrex): Normal renal proxima tubule epithelial cell, Human • 2. A-498 (ATCC HTB-44): Kidney carcinoma, Human • 3. HCT 116 (ATCC CCL-247): Colorectal carcinoma, Human • 4. Hep 3B (ATCC HB-8064): Hepatocellular carcinoma, Human • 5. LNCap clone FGC (ATCC CRL-1740): Prostate carcinoma, Human • 6. MCF-7 (ATCC HTB-22): Mammary gland adenocarcinoma, Human • 7. MKN45 (FDSC JCRB0245): Stomach carcinoma, Human • 8. NCI-H226 (ATCC CRL-5826): Lung carcinoma, Human • 9. NPC-TW01 (School of Medicine, NTU): Nasal-pharyngeal carcinoma, Human […]
# (§2) To evaluate the antitumoral activity of SF-01 towards various human cancer cell lines and measure the potential cytotoxicity of SF-01 towards the primary human renal cell lines (RPTEC), an in vitro cytotoxicity assay was carried out. […] To quantify the metabolically viable cells, the conversion of MTS to formazan was measured by absorbance at 490 nm in a 96-well microtiter plate reader. […] The percentage of cytostasis was calculated by the formula: Cytostasis (%)=[1−(B/A)]×100, where A is the absorbance of the untreated control and B is the absorbance of the treated cell. […]
# [2] = system: HCT 116 colorectal carcinoma cells; experiment: in vitro cytotoxicity assay (MTS), HCT 116; conditions: Homo sapiens, HCT 116, 72 hours exposure, read-out: IC50 (concentration that inhibits 50% of cell growth)
# Source text: as §1, §2
# [3] = system: MKN45 stomach carcinoma cells; experiment: in vitro cytotoxicity assay (MTS), MKN45; conditions: Homo sapiens, MKN-45, MKN45, 72 hours exposure, read-out: IC50 (concentration that inhibits 50% of cell growth)
# Source text: as §1, §2
# [4] = system: various human tumor cell lines; experiment: in vitro cytotoxicity assay (MTS), span over the tumor cell lines; conditions: span over the eight tumor cell lines, 72 hours exposure
# Source text: as §1, §2
# [5] = system: A-498 kidney carcinoma cells; experiment: in vitro cytotoxicity assay (MTS), A498; conditions: Homo sapiens, A498, 72 hours exposure, read-out: IC50 (concentration that inhibits 50% of cell growth)
# Source text: as §1, §2
# [6] = system: RPTEC normal renal proximal tubule epithelial cells; experiment: in vitro cytotoxicity assay (MTS), normal cell RPTEC; conditions: Homo sapiens, 72 hours exposure, read-out: IC50 (concentration that inhibits 50% of cell growth)
# Source text: as §1, §2
# [7] = system: Hep 3B hepatocellular carcinoma cells; experiment: in vitro cytotoxicity assay (MTS), Hep 3B; conditions: Homo sapiens, Hep3B, 72 hours exposure, read-out: IC50 (concentration that inhibits 50% of cell growth)
# Source text: as §1, §2
# [8] = system: NCI-H226 lung carcinoma cells; experiment: in vitro cytotoxicity assay (MTS), NCI-H226; conditions: Homo sapiens, NCI-H226, 72 hours exposure, read-out: IC50 (concentration that inhibits 50% of cell growth)
# Source text: as §1, §2
# [9] = system: MCF-7 mammary gland adenocarcinoma cells; experiment: in vitro cytotoxicity assay (MTS), MCF-7; conditions: Homo sapiens, MCF7, MCF-7, 72 hours exposure, read-out: IC50 (concentration that inhibits 50% of cell growth)
# Source text: as §1, §2
# [10] = system: LNCaP clone FGC prostate carcinoma cells; experiment: in vitro cytotoxicity assay (MTS), LNCaP clone FGC; conditions: Homo sapiens, 72 hours exposure, read-out: IC50 (concentration that inhibits 50% of cell growth)
# Source text: as §1, §2
Structure (SMILES),IC50 [1] [nM],IC50 [2] [nM],IC50 [3] [nM],IC50 to various human tumor cell lines (span over the lines) [4] [nM],IC50 [5] [nM],IC50 [6] [nM],IC50 [7] [nM],IC50 [8] [nM],IC50 [9] [nM],IC50 [10] [nM]
COc1cccc2c1C(=O)c1c(O)c3c(c(O)c1C2=O)C[C@@](O)(C(=O)CO)C[C@@H]3O[C@H]1C[C@H](N)[C@H](O)[C@H](C)O1 [Doxorubicin],11,33,58,800 to 11,782,3180,116,123,70,14
CC(=O)O[C@H]1C(=O)[C@@]2(C)[C@H]([C@H](OC(=O)c3ccccc3)[C@]3(O)C[C@H](OC(=O)[C@H](O)[C@@H](NC(=O)c4ccccc4)c4ccccc4)C(C)=C1C3(C)C)[C@]1(OC(C)=O)CO[C@@H]1C[C@@H]2O [Taxol],< 0.0256,< 0.0256,0.0256,11 to 0.003,11.1,406,0.0256,< 0.64,< 0.0256,< 0.0256

# From patent US7527812B2, “Herbal composition for treating cancer” (Sheng Foong Pharmaceutical Co., Ltd., priority 2005, dated 2009)
